Measurements from patent US5599793A, “Antithromobotic agents” (Eli Lilly and Company, priority 1995, dated 1997).

Columns and labels:
[1] = target: T1, factor Xa (Homo sapiens, UniProt P00742); assay: Serine protease selectivity, chromogenic substrate (Kass), factor Xa; format: biochemical; settings: substrate N-Benzoyl-Ile-Glu-Gly-Arg-p-nitroanilide
T1 construct: Human factors X, Xa, IXa, XIa, and XIIa are purchased; purchased Enzyme Research Laboratories, South Bend, Ind
Description: (§1) The assay is carried out by mixing 50 μL buffer (0.03M Tris, 0.15M NaCl, pH 7.4) with 25 μL of bovine thrombin or human thrombin solution (0.21 mg/mL of thrombostat bovine thrombin, Parke-Davis, or purified human thrombin, Enzyme Research Laboratories, South Bend, Ind., at about 8 NIH units/mL, in the same buffer) and 25 μL of test compound in a solvent (in 50% aqueous methanol, v:v). The 150 μL of an aqueous solution of the chromogenic substrate (at 0.25 mg/mL) are added and the rates of hydrolysis of the substrate are measured by monitoring the reactions at 405 nm for the release of p-nitroaniline. Standard curves are constructed by plotting free thrombin concentration against hydrolysis rate. The hydrolysis rates observed with test compounds are then converted to "free thrombin" values in the respective assays by use of the standard curves. The bound thrombin (bound to test compound) is calculated by subtracting the amount of free thrombin observed in each assay from the known initial amount of thrombin used in the assay. The amount of free inhibitor in each assay is calculated by subtracting the number of moles of bound thrombin from the number of moles of added inhibitor (test compound).
(§2) Kass is calculated for a range of concentrations of test compounds and the mean value is reported in units of liter per mole.
(§3) By substantially following the procedures described above for human thrombin, and using other human blood coagulation system serine proteases and proteases of the fibrinolytic system with the appropriate chromogenic substrates, identified below, selectivity of the compounds of the present invention with respect to the coagulation factor serine proteases and with respect to the fibrinolytic system serine proteases are evaluated as well as their substantial lack of interference with serine proteases of the fibrinolytic system. Thrombin inhibitors preferably should spare fibrinolysis induced by urokinase, tissue plasminogen activator (t-PA) and streptokinase. This would be important to the therapeutic use of such agents as an adjunct to streptokinase, t-PA or urokinase thrombolytic therapy and to the use of such agents as an endogenous fibrinolysis-sparing (with respect to t-PA and urokinase) antithrombotic agent. In addition to the lack of interference with the amidase activity of the fibrinolytic proteases, such fibrinolytic system sparing can be studied by the use of human plasma clots and their lysis by the respective fibrinolytic plasminogen activators.
(§4) Human factors X, Xa, IXa, XIa, and XIIa are purchased from Enzyme Research Laboratories, South Bend, Ind.; human urokinase from Leo Pharmaceuticals, Denmark; and recombinant activated Protein C (aPC) is prepared at Eli Lilly and Co. substantially according to U.S. Pat. No. 4,981,952. Chromogenic substrates: N-Benzoyl-Ile-Glu-Gly-Arg-p-nitroanilide (for factor Xa); N-Cbz-D-Arg-Gly-Arg-p-nitroanilide (for factor IXa assay as the factor Xa substrate); Pyroglutamyl-Pro-Arg-p-nitroanilide (for Factor XIa and for aPC); H-D-Pro-Phe-Arg-p-nitroanilide (for factor XIIa); and Pyroglutamyl-Gly-Arg-p-nitroanilide (for urokinase); are purchased from KabiVitrum, Stockholm, Sweden, or from Midwest Biotech, Fishers, Ind. Bovine trypsin is purchased from Worthington Biochemicals, Freehold, N.J., and human plasma kallikrein from Kabi Vitrum, Stockholm, Sweden. Chromogenic substrate H-D-Pro-Phe-Arg-p-nitroanilide for plasma kallikrein is purchased from Kabi Vitrum, Stockholm, Sweden. N-Benzoyl-Phe-Val-Arg-p-nitroanilide, the substrate for human thrombin and for trypsin, is synthesized according to procedures described above for the compounds of the present invention, using known methods of peptide coupling from commercially available reactants or purchased from Midwest Biotech, Fishers, Ind.

[2] = target: T2, t-PA (Homo sapiens, UniProt P00750); assay: Serine protease selectivity, chromogenic substrate (Kass), t-PA; format: biochemical; settings: substrate H-D-Ile-Pro-Arg-p-nitroanilide
T2 construct: purchased American Diagnostica, Greenwich, Conn
T2 sequence (P00750 36-562): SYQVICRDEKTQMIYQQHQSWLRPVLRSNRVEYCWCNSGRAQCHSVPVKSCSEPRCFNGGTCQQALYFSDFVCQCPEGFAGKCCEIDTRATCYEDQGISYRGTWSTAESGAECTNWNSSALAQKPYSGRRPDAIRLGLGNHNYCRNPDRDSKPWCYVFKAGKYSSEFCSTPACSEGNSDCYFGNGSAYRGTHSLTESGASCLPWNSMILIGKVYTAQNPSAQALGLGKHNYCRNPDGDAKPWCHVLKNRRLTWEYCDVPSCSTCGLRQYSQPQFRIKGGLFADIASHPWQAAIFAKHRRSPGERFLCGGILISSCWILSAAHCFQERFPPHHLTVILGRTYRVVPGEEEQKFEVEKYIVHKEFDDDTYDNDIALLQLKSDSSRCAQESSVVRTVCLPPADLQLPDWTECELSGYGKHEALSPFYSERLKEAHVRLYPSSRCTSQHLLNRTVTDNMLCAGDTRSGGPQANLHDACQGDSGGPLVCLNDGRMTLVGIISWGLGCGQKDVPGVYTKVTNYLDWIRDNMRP
Description: as §1, §2, §3
(§5) Human plasmin is purchased from Boehringer Mannheim, Indianapolis, Ind.; nt-PA is purchased as single chain activity reference from American Diagnostica, Greenwich, Conn.; modified-t-PA6 (mt-PA6) is prepared at Eli Lilly and Company by procedure known in the art (See, Burck, et al., J. Biol. Chem., 265, […] (1990). Plasmin chromogenic substrate H-D-Val-Leu-Lys-p-nitroanilide and tissue plasminogen activator (t-PA) substrate H-D-Ile-Pro-Arg-p-nitroanilide are purchased from Kabi Vitrum, Stockholm, Sweden.

[3] = tested on: Human plasma; assay: Human plasma anticoagulation, thrombin time (TT); format: biochemical; settings: concentration required to double the thrombin time, linear extrapolation
Description: (§6) Dog plasma and rat plasma is obtained from conscious mixed-breed hounds (either sex, Hazelton-LRE, Kalamazoo, Mich., U.S.A.) or from anesthetized male Sprague-Dawley rats (Harlan Sprague-Dawley, Inc., Indianapolis, Ind., U.S.A.) by venipuncture into 3.8 percent citrate. Fibrinogen is prepared from in-date ACD human blood as the fraction I-2 according to previous procedures and specifications. Smith, Biochem. J., 185, 1-11 (1980); and Smith, et al., Biochemistry, 11, 2958-2967 (1972). Human fibrinogen is also purchased as 98 percent pure/plasmin free from American Diagnostica, Greenwich, Conn. Coagulation reagents ACTIN, Thromboplastin, and Human plasma are from Baxter Healthcare Corp., Dade Division, Miami, Fla. Bovine thrombin from Parke-Davis ([…], Mich.) is used for coagulation assays in plasma.
(§7) Coagulation assay procedures are as previously described. Smith, et al., Thrombosis Research, 50, 163-174 (1988). A CoAScreener coagulation instrument (American LABor, Inc.) is used for all coagulation assay measurements. The prothrombin time (PT) is measured by adding 0.05 mL saline and 0.05 mL Thromboplastin-C reagent to 0.05 mL test plasma. The activated partial thromboplastin time (APTT) is measured by incubation of 0.05 mL test plasma with 0.05 mL Actin reagent for 120 seconds followed by 0.05 mL CaCl2 (0.02M). The thrombin time (TT) is measured by adding 0.05 mL saline and 0.05 mL thrombin (10 NIH units/mL) to 0.05 mL test plasma. The compounds of formula I are added to human or animal plasma over a wide range of concentrations to determine prolongation effects on the APTT, PT, and TT assays. Linear extrapolations are performed to estimate the concentrations required to double the clotting time for each assay.

[4] = target: T3, Trypsin (Bos taurus, UniProt P00760); assay: Serine protease selectivity, chromogenic substrate (Kass), trypsin; format: biochemical, bovine; settings: substrate N-Benzoyl-Phe-Val-Arg-p-nitroanilide
T3 construct: Bovine trypsin is purchased; purchased Worthington Biochemicals, Freehold, N.J
T3 sequence (P00760 24-246): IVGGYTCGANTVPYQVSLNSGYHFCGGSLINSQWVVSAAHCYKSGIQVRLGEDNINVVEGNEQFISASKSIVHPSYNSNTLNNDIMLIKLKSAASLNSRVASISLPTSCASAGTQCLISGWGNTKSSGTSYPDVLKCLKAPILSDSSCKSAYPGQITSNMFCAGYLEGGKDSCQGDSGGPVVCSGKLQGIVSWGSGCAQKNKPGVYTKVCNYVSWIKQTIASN
Description: as §1, §2, §3, §4

[5] = tested on: Human plasma; assay: Human plasma anticoagulation, activated partial thromboplastin time (APTT); format: biochemical; settings: concentration required to double the APTT, linear extrapolation
Description: as §6, §7

[6] = target: Human Thrombin (Homo sapiens, UniProt P00734); assay: Inhibition of amidase activity of thrombin (Kass); format: biochemical; settings: apparent association constant, mean over a range of concentrations
Description: as §1
The Kass value is the hypothetical equilibrium constant for the reaction between thrombin and the test compound (I). [drawing 54]
as §2

[7] = target: T4, Plasmin (Homo sapiens, UniProt P00747); assay: Serine protease selectivity, chromogenic substrate (Kass), plasmin; format: biochemical; settings: substrate H-D-Val-Leu-Lys-p-nitroanilide
T4 construct: Human plasmin is purchased; purchased Boehringer Mannheim, Indianapolis, Ind
T4 sequence (P00747 581-810 limits assumed): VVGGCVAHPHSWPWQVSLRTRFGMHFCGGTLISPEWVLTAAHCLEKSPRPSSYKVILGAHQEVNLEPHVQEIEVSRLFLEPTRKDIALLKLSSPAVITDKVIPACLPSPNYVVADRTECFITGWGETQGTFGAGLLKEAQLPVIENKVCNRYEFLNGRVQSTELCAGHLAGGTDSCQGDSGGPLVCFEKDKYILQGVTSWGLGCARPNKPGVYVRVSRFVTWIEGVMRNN
T4 sequence (P00747 97-580 partner limits assumed): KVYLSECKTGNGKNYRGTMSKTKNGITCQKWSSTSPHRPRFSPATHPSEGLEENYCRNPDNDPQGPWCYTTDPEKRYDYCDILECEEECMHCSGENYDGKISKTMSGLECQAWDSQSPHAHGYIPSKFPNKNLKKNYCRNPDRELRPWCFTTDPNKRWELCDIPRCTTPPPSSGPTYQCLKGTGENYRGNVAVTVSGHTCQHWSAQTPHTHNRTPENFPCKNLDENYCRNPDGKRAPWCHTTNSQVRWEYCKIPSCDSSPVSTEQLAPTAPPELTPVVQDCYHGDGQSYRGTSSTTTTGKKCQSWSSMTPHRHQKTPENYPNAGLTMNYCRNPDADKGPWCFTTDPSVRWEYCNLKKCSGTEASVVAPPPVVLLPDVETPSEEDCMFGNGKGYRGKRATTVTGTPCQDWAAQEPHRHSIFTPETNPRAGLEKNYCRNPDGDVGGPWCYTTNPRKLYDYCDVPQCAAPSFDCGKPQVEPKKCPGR
Description: as §1, §2, §3, §5

[8] = tested on: Human plasma; assay: Human plasma anticoagulation, prothrombin time (PT); format: biochemical; settings: concentration required to double the PT, linear extrapolation
Description: as §6, §7

T1 sequence (P00742 235-488 limits assumed): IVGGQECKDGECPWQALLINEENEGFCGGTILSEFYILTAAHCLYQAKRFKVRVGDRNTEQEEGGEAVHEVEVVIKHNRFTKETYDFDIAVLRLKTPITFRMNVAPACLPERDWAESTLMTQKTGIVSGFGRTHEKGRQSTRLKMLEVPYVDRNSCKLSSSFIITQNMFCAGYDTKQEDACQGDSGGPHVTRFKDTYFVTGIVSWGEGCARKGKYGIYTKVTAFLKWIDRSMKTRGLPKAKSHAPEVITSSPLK
T1 sequence (P00742 41-179 partner limits assumed): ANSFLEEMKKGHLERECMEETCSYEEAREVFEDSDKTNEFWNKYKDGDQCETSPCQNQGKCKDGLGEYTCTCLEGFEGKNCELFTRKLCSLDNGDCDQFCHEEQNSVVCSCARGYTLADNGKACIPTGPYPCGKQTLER

SMILES | Enzyme Kass, Xa [1] | Enzyme Kass, t-PA [2] | 2x Clotting time, TT [3] | Enzyme Kass, Trypsin [4] | 2x Clotting time, APTT [5] | Enzyme Kass, Human Thrombin [6] | Enzyme Kass, Plasmin [7] | 2x Clotting time, PT [8]
CC(=O)Nc1cccc(O[C@H]2C[C@@H](C(=O)N[C@H](C=O)CCCNC(=N)N)N(C(=O)[C@H]3CCCCN3)C2)c1.Cl.Cl (relative stereo) [Example 12, D-hPro-Pro(4-cis-(3-AcNH-phenoxy))-ArgH.2 HCl] | 1.2 L/mol × 10^6 | 0.015 L/mol × 10^6 | 210 ng/mL | 56 L/mol × 10^6 | 1,300 ng/mL | 6.1 L/mol × 10^6 | 1.1 L/mol × 10^6 | 4,100 ng/mL
Cl.Cl.N=C(N)NCCC[C@@H](C=O)NC(=O)[C@@H]1C[C@H](Oc2cccc(N)c2)CN1C(=O)[C@H]1CCCCN1 (relative stereo) [Example 13, D-hPro-Pro(4-cis-(3-NH2-phenoxy))-ArgH.2 HCl] | 0.58 L/mol × 10^6 | 0.033 L/mol × 10^6 | 490 ng/mL | 22 L/mol × 10^6 | 2,900 ng/mL | 2.1 L/mol × 10^6 | 0.65 L/mol × 10^6 | 9,100 ng/mL
CCS(=O)(=O)N[C@H](C(=O)N1C[C@@H](Oc2ccccc2)C[C@H]1C(=O)N[C@H](C=O)CCCNC(=N)N)c1ccccc1.Cl (relative stereo) [Example 16, EtSO2 -L-Phg-Pro(4-cis-phenoxy)-ArgH.HCl] | 6.8 L/mol × 10^6 | 0.26 L/mol × 10^6 | 120 ng/mL | 180 L/mol × 10^6 | 2,400 ng/mL | 43 L/mol × 10^6 | 4.8 L/mol × 10^6 | 4,900 ng/mL
CCS(=O)(=O)N[C@@H](C(=O)N1C[C@@H](Oc2ccccc2)C[C@H]1C(=O)N[C@H](C=O)CCCNC(=N)N)c1ccccc1.Cl (relative stereo) [Example 17, EtSO2 -D-Phg-Pro(4-cis-phenoxy)-ArgH.HCl] | 32 L/mol × 10^6 | 1.5 L/mol × 10^6 | 16 ng/mL | 910 L/mol × 10^6 | 380 ng/mL | 2,200 L/mol × 10^6 | 26 L/mol × 10^6 | 1,200 ng/mL
Cl.Cl.N=C(N)NCCC[C@@H](C=O)NC(=O)[C@@H]1C[C@H](Oc2ccc(C(=O)O)cc2)CN1C(=O)[C@H]1CCCCN1 (relative stereo) [Example 18, D-hPro-Pro(4-cis-(4-COOH-phenoxy))-ArgH.2 HCl] | 0.58 L/mol × 10^6 | 0.013 L/mol × 10^6 | 248 ng/mL | 52.2 L/mol × 10^6 | 5,969 ng/mL | 4.5 L/mol × 10^6 | 0.37 L/mol × 10^6 | 10,783 ng/mL
Cl.Cl.N=C(N)NCCC[C@@H](C=O)NC(=O)[C@@H]1C[C@H](Oc2cccc(C(=O)O)c2)CN1C(=O)[C@H]1CCCCN1 (relative stereo) [Example 19, D-hPro-Pro(4-cis-(3-COOH-phenoxy))-ArgH.2 HCl] | 1.30 L/mol × 10^6 | 0.022 L/mol × 10^6 | 345 ng/mL | 49.3 L/mol × 10^6 | 3,497 ng/mL | 2.8 L/mol × 10^6 | 0.50 L/mol × 10^6 | 8,822 ng/mL
CCS(=O)(=O)N[C@H](Cc1ccccc1)C(=O)N1[C@H](C(=O)N[C@H](C=O)CCCNC(=N)N)C[C@@H]2CCCC[C@@H]21.Cl (relative stereo) [Example 23, EtSO2 -D-Phe-cis-Ohi-ArgH.HCl] | 4,37 L/mol × 10^6 | 2.07 L/mol × 10^6 | 19 ng/mL | 312 L/mol × 10^6 | 312 ng/mL | 957 L/mol × 10^6 | 28.2 L/mol × 10^6 | 746 ng/mL
